Reference: ChEMBL document CHEMBL4130540, “Multifunctional iminochromene-2H-carboxamide derivatives containing different aminomethylene triazole with BACE1 inhibitory, neuroprotective and metal chelating properties targeting Alzheimer's disease” (Eur J Med Chem, 2017)
Calls of active or inactive are those of the source. No cut-off for these calls is given here.

Columns and labels:
[1] = test system: PC-12; assay: Neuroprotection against amyloid beta (25 to 35)-induced cell death in rat PC12 cells at 10 uM preincubated for 3 hrs followed by amyloid beta addition measured after 24 hrs by MTT assay relative to control; assay type: functional
[2] = target: T1, Beta-secretase 1 (Homo sapiens, UniProt P56817); assay: Inhibition of recombinant human BACE1 (1 to 460 residues) expressed in baculovirus infected insect cells at 50 uM using Rh-EVNLDAEFK-Quencher as substrate incubated under dark condition for 90 mins by FRET assay relative to control
[3] = test system: PC-12; assay: Cytotoxicity against rat PC12 cells up to 100 uM after 24 hrs by MTT assay; assay type: cell-based; settings: pc-12, 24 h
[4] = target: T1, Beta-secretase 1; assay: Inhibition of recombinant human BACE1 (1 to 460 residues) expressed in baculovirus infected insect cells at 10 uM using Rh-EVNLDAEFK-Quencher as substrate incubated under dark condition for 90 mins by FRET assay relative to control
[5] = test system: PC-12; assay: Neuroprotection against amyloid beta (25 to 35)-induced cell death in rat PC12 cells at 25 uM preincubated for 3 hrs followed by amyloid beta addition measured after 24 hrs by MTT assay relative to control; assay type: functional
[6] = test system: PC-12; assay: Neuroprotection against amyloid beta (25 to 35)-induced cell death in rat PC12 cells preincubated for 3 hrs followed by amyloid beta addition measured after 24 hrs by MTT assay; assay type: functional, cell-based
[7] = target: T1, Beta-secretase 1; assay: Inhibition of recombinant human BACE1 (1 to 460 residues) expressed in baculovirus infected insect cells using Rh-EVNLDAEFK-Quencher as substrate incubated under dark condition for 90 mins by FRET assay
[8] = test system: PC-12; assay: Neuroprotection against amyloid beta (25 to 35)-induced cell death in rat PC12 cells at 15 uM preincubated for 3 hrs followed by amyloid beta addition measured after 24 hrs by MTT assay relative to control; assay type: functional
[9] = Metal chelating activity assessed as compound-Fe2+ complex formation at 400 uM preincubated with ferrous ion FeCl2 followed by ferrozine addition measured after 10 mins by spectroscopic method
[10] = Metal chelating activity assessed as compound-Fe2+ complex formation at 20 uM after 30 mins by UV-Visible spectroscopic method
[11] = Metal chelating activity assessed as mole fraction of compound required to show 3:2 stoichiometry for Fe2+-compound complex at 20 uM after 30 min by UV-Visible spectroscopic method

T1 sequence (P56817 whole entry, the tested form may be a part): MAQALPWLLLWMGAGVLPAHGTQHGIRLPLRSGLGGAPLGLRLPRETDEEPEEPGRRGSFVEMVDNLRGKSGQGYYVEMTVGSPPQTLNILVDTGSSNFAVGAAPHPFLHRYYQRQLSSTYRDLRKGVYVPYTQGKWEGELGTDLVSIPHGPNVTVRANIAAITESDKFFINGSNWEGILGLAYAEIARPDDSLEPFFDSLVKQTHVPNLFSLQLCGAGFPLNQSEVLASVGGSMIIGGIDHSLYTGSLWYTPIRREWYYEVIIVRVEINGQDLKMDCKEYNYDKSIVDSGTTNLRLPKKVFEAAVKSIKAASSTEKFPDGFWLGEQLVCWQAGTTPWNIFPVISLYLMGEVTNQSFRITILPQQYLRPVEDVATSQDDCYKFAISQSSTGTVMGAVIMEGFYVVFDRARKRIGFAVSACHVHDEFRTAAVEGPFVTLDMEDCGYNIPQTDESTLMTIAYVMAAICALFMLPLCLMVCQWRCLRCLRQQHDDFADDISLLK

SMILES	Activity [1] [%]	inhibition [2] [%]	Activity [3]	inhibition [4] [%]	Activity [5] [%]	IC50 [6] [µM]	IC50 [7] [µM]	Activity [8] [%]	Activity [9] [%]	Activity [10]	Activity [11] [molar ratio]
N=c1oc2ccccc2cc1C(=O)Nc1cc(Br)ccc1NCc1cn(Cc2ccc(F)cc2)nn1	13.1	45.9	Non-Toxic	21.3	22.2	–	–	–	–	–	–
N=c1oc2ccccc2cc1C(=O)Nc1cc(Br)ccc1NCc1cn(Cc2cccc(Cl)c2Cl)nn1	23.6	62	Non-Toxic	47.8	57.2	18.9	15.6	–	–	–	–
COc1ccc(Cn2cc(CNc3ccc(Br)cc3NC(=O)c3cc4ccccc4oc3=N)nn2)cc1	28.4	34.5	Non-Toxic	10	22	–	–	–	–	–	–
Cc1ccc(Cn2cc(CNc3ccc(Br)cc3NC(=O)c3cc4ccccc4oc3=N)nn2)cc1	–	52.4	Non-Toxic	38.3	19.2	–	–	83.8	–	–	–
N=c1oc2ccccc2cc1C(=O)Nc1cc(Br)ccc1NCc1cn(Cc2ccccc2)nn1	–	25.2	Non-Toxic	12.1	–	–	–	–	–	–	–
O=C(O)/C=C/c1ccc(O)c(O)c1 [CAFFEIC ACID]	–	–	–	–	–	75.8	–	–	–	–	–
O=C(O)CN(CCN(CC(=O)O)CC(=O)O)CC(=O)O	–	–	–	–	–	–	–	–	96.4	–	–
N=c1oc2ccccc2cc1C(=O)Nc1cc(Br)ccc1NCc1cn(Cc2ccc(Br)cc2)nn1	16.4	100	Non-Toxic	72.3	37.5	37.8	6.4	–	45.2	Active	1.5
N=c1oc2ccccc2cc1C(=O)Nc1cc(Br)ccc1NCc1cn(CCCCN2C(=O)c3ccccc3C2=O)nn1	67.8	77.6	Non-Toxic	55.7	–	6.8	6.8	–	12.8	–	–
N=c1oc2ccccc2cc1C(=O)Nc1cc(Br)ccc1NCc1cn(CCCN2C(=O)c3ccccc3C2=O)nn1	78.8	84.2	Non-Toxic	83.5	100	7.9	2.2	–	10.2	–	–
N=c1oc2ccccc2cc1C(=O)Nc1cc(Br)ccc1NCc1cn(Cc2ccc(Cl)c(Cl)c2)nn1	21.8	60.8	Non-Toxic	52	49.8	90.5	7.5	–	–	–	–
